Assay [1] has as its target Estrogen receptor beta (Homo sapiens, UniProt Q92731).
Description: In vitro displacement of 0.5 nM [3H]17-beta-estradiol from human Estrogen receptor beta
Assay [2] deals with T1, Estrogen receptor (Homo sapiens, UniProt P03372).
T1 sequence (P03372 whole entry): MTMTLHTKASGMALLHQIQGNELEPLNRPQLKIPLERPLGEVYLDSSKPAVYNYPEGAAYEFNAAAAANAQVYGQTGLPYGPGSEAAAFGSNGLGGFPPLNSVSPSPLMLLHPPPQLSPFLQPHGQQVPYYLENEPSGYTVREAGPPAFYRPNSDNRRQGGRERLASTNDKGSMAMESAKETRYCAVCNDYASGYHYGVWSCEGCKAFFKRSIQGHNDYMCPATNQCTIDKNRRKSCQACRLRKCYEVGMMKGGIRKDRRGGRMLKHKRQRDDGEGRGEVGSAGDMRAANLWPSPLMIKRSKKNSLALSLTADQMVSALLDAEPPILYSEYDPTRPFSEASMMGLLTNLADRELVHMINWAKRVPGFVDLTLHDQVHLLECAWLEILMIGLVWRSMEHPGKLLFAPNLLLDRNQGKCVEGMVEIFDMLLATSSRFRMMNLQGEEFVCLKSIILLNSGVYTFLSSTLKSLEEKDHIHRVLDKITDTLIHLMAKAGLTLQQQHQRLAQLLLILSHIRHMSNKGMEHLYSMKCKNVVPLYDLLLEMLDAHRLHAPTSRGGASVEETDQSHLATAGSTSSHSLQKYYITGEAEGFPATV
Description: In vitro displacement of 0.5 nM [3H]17-beta-estradiol from human Estrogen receptor alpha

Estrogen receptor beta, sequence (Q92731 whole entry): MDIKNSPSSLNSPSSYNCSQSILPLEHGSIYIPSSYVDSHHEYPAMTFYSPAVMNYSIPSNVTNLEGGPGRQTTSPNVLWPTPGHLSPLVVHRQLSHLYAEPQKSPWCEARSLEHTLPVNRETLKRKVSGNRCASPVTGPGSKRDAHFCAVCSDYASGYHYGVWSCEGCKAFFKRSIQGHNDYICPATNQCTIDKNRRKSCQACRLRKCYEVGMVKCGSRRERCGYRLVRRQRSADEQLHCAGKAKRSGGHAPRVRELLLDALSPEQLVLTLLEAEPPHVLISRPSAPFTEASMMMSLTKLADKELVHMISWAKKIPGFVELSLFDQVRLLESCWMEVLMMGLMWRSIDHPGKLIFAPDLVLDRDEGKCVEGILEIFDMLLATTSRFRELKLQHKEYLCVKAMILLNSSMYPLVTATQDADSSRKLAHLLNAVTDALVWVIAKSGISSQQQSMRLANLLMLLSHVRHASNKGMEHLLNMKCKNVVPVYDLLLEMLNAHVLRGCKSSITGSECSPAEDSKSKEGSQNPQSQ

As usually defined, the Ki is a measure of affinity in units of concentration, obtained from inhibition or displacement. As for `CC(=O)c1ccc2c(c1)c(-c1ccc(OCCN3CCCCC3)cc1)cc1cc(O)cc(C)c12`, the Ki in assay [1] was 0.63 µM; in assay [2] it was more than 1 µM.

The molecule `Cc1cc(O)cc2cc(-c3ccc(OCCN4CCCCC4)cc3)c3cc(C(C)O)ccc3c12` (stereo unspecified) came in with a Ki in assay [1] of 0.19 µM.

Consider `CC(C)=C(C)c1ccc2c(c1)c(-c1ccc(OCCN3CCCCC3)cc1)cc1cc(O)cc(C)c12`, for which the Ki in assay [1] was 0.2 µM; in assay [2], 0.21 µM.

Turning to `Cc1cc(O)cc2cc(-c3ccc(OCCN4CCCCC4)cc3)c3cc(C(=O)C(C)C)ccc3c12`, the figures for the Ki in assay [1] and in assay [2] were more than 1 µM and 0.49 µM, respectively.

For the molecule `CCc1ccc2c(c1)C(c1ccc(OCCN3CCCCC3)cc1)Cc1cc(O)cc(C)c1-2` (stereo unspecified), the inhibition constant (Ki) in assay [1] was found to be 0.19 µM; in assay [2] it was 0.00869 µM.

As to `C=C(C)c1ccc2c(c1)c(-c1ccc(OCCN3CCCCC3)cc1)cc1cc(O)cc(C)c12`, the Ki in assay [1] was 0.18 µM; in assay [2], 0.29 µM.

These data come from ChEMBL document CHEMBL1136756, “De novo design, synthesis, and evaluation of novel nonsteroidal phenanthrene ligands for the estrogen receptor” (J Med Chem, 2003).
